Laboratory results taken from patent publication US20230165865A1, “HETEROARYLDIHYDROPYRIMIDINE DERIVATIVES AND METHODS OF TREATING HEPATITIS B INFECTIONS” (Janssen Pharmaceutica NV, priority 2018, published 2023).
Where two headings read alike, the source gives them in different places.

Tests used:
HBV = test: Anti-viral assay in HepG2.2.15 cells: anti-HBV activity, HBV DNA in culture medium by qPCR; type: cell-based; settings: HepG2.2.15 cells, 6 days treatment, HBV DNA by qPCR; read-out: EC50
How it was run: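 Cells in 2% FBS medium treated 6 days, compound and medium refreshed at day 3; 8-point 1:3 dilutions in triplicate, top 10 or 1 uM (antiviral) and 100 uM (cytotoxicity). Extracellular viral DNA quantified by qPCR, giving EC50 and CC50.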

HepG2.2.15 cells = test: Cytotoxicity determination in HepG2.2.15 cells (CCK-8 assay); type: cell-based; settings: 6 days treatment, CCK-8, highest concentration 100 uM
How it was run: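 HepG2.2.15 cells (5,000/well, 2% FBS medium) were treated for 6 days, with medium and compound refreshed at day 3. Dosing was an 8-point 1:3 series from 100 uM, in triplicate. Viability was measured by CCK-8 after 2.5 h at 37 °C (A450, 630 nm reference), and CC50 was calculated.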

[1] = Metabolic stability of test compound in human hepatocyte cell; type: in vitro ADME; settings: cryopreserved human hepatocytes (suspension), human hepatocytes; for half-life at 1 uM: 0-120 min, read-out: T½; for CLint scaled at 1 uM: scale-up intrinsic clearance, scaling factor 2544.3, read-out: Clint (liver)
Procedure: (§1) • 1. The cryopreserved human hepatocytes cells were thawed in 37° C. water bath and diluted with pre-warmed incubation medium to a working cell density of 1×10^6 viable cells/mL. • 2. The 198 μL pre-warmed hepatocyte suspensions were spiked with 2 μL of 100 μM compound or reference compound(Verapamil) at a final concentration of 1.0 μM in a 96-well plate. The plate was incubated at 37° C., 900 rpm. All incubations will be performed in singlet. • 3. 25 μL aliquots of well contents were collected at time points of 0, 15, 30, 60, 90 and 120 minutes. The reactions were stopped by the addition of 6-fold volumes of cold acetonitrile with internal standards. • 4. After centrifugation for 25 minutes at 3,220 g. Aliquot of 100 μL of the supernatant was mixed with 100 μL of ultra-pure H2O and then used for LC-MS/MS analysis.
(§2) All calculations were carried out using Microsoft Excel. Peak areas were determined from extracted ion chromatograms. Determine the in vitro half-life (t1/2) of parent compound by regression analysis of the percent parent disappearance vs. time curve.
(§3) The in vitro half-life (in vitro t1/2) is determined from the slope value k:
(§4) Conversion of the in vitro t1/2(in min) into the in vitro intrinsic clearance (in vitro CLint, in μL/min/10^6 cells) is done using the following equation:
(§5) V=incubation volume (0.2 mL);
(§6) N=number of hepatocytes per well (0.2×10^6 cells).
(§7) Conversion of the in vitro t1/2(in min) into the scale-up intrinsic clearance (CLint(liver), in mL/min/kg) was done using the following equation:
(§8) CLint(liver)=kV/N×scaling factor

human hepatocytes = test: as above; type: in vitro ADME; settings: for metabolic stability in human hepatocyte cells, in words: comparing with reference 1 and reference 2
Procedure: as §1, §2, §3, §4, §5, §6, §7, §8

[2] = Pharmacokinetic and tissue distribution study via intravenous and oral administration in male C57BL/6 mice; type: in vivo; settings: for Kp: liver and plasma, po; for F: PO vs IV
Procedure: Male C57BL/6 mice with a weight range of 20-25 g (Hua Fu Kang, China) were used. Animals were fasted overnight and free access to food 4 hours after dosing.
Test compound (correction factor: 1.00) was dissolved in a 20% hydroxypropyl-β-cyclodextrin (HP-β-CD) at a final concentration of 1 mg/ml for the intravenous (IV) formulation and at final concentrations of 0.5 mg/ml for the oral (PO) formulation. The intravenous formulation was dosed at 2 ml/kg to obtain a dose of 2 mg/kg. The oral formulations were dosed at 10 ml/kg to obtain final doses of 5 mg/kg.
Blood samples were taken at 7 and 20 min, 1, 2, 4, 8 and 24 h after intravenous dose administration. Blood and liver samples were taken at 30 min, 1, 2, 4, 8, 12 and 24 h after oral dose administration.
(§9) Approximately 0.020 mL blood will be collected into BD blood collection tubes containing K3-EDTA at each time point. Samples were placed immediately on melting ice and plasma was obtained following centrifugation at 4° C. for 5 minutes at approximately 4000×g. Plasma samples were adjusted to pH 3-4 by phosphoric acid and stored at −75±15° C. prior to analysis. The whole process was completed within 1 hour.
Liver samples were collected at adopted time point, and the vial containing the tissues sample was snap-frozen in liquid nitrogen right away and kept at −75±15° C. prior to analysis. All liver samples were weighed and homogenized with phosphoric acid solution (pH to 3-4) by liver weight (g) to phosphoric acid solution volume (mL) ratio 1:4 before analysis.
Plasma and liver samples were analyzed using LC-MS/MS methods. The lower limit of quantification (LLOQ) for plasma was 1.0 ng/ml and for liver was 2.5 ng/g. A non-compartmental analysis using the “Linear up log down” rule was used for all data. A limited pharmacokinetic analysis was performed using Phoenix™ Professional (Version 6.1).

[3] = Pharmacokinetic study after intravenous and oral administration in male SD rats; type: in vivo; settings: for clearance / Cmax: male, SD; for clearance / Cmax / IV AUCinf/Dose / PO AUCinf/Dose / clearance, in words / dose-normalized AUC (AUCinf/Dose), in words: rat plasma; for clearance / IV AUCinf/Dose: IV, nominal 2 mg/kg; for clearance: read-out: IV Cl; for Cmax / PO AUCinf/Dose: PO; for Cmax: nominal 5 mg/kg; for clearance, in words / dose-normalized AUC (AUCinf/Dose), in words / bioavailability (F (%)), in words: comparing with reference 2; for F / bioavailability (F (%)), in words: rat; for F: PO vs IV
Procedure: Male SD rats with a weight range of 250-300 g (Si Bei Fu Laboratory Animal Technology Co. Ltd, China) were used. Animals were fasted overnight and free access to food 4 hours after dosing.
Test compound (correction factor: 1.00) was dissolved in a 20% hydroxypropyl-β-cyclodextrin (HP-β-CD) at a final concentration of 1 mg/ml for the intravenous (IV) formulation and at final concentrations of 0.5 mg/ml for the oral (PO) formulation.
The intravenous formulation was dosed at 2 ml/kg to obtain a dose of 2 mg/kg. The oral formulations were dosed at 10 ml/kg to obtain final doses of 5 mg/kg.
Blood samples were taken at 5, 15 and 30 min, 1, 2, 4, 8 and 24 h after intravenous dose administration. Blood samples were taken at 15 and 30 min, 1, 2, 4, 8, 12 and 24 h after oral dose administration.
as §9, with “0.20” for “0.020”, “containing Sodium Fluoride (NaF), Potassium Oxalate (KoX) and” for “containing”
Plasma samples were analyzed using LC-MS/MS methods. The lower limit of quantification (LLOQ) for plasma was 1.0 ng/ml.
A non-compartmental analysis using the “Linear up log down” rule was used for all data. A limited pharmacokinetic analysis was performed using Phoenix™ Professional (Version 6.1). Results: See table 10 below for plasma PK results.

[4] = mice plasma, IV, nominal 2 mg/kg

Compound: CCOC(=O)C1=C(CN2CCN3C(=S)N(CC(C)(C)C(=O)O)CC3C2)NC(c2nccs2)=NC1c1cccc(F)c1Cl (single isomer, unassigned) [Compound 3B, 3-(7-((6-(2-chloro-3-fluorophenyl)-5-(ethoxycarbonyl)-2-(thiazol-2-yl)-3,6-dihydropyrimidin-4-yl)methyl)-3-thioxohexahydroimidazo[1,5-a]pyrazin-2(3H)-yl)-2,2-dimethylpropanoic acid]
- EC50 (HBV): 0.0017 µM
- CC50 (HepG2.2.15 cells): 17.8 µM
- half-life at 1 uM [1]: 2.91 h
- CLint scaled at 1 uM [1]: 10.1 mL/min/kg
- metabolic stability in human hepatocyte cells, in words (human hepatocytes): improved metabolic stability
- Kp ([2]; male, C57BL/6, mouse, mice, PO, read-out: AUCInf Ratio (Liver/Plasma)): 19.9
- Kp ([2]; male, C57BL/6, mouse, mice, PO, read-out: Cmax Ratio (Liver/Plasma)): 15.3
- clearance ([2]; male, C57BL/6, mouse, mice plasma, IV, nominal 2 mg/kg, read-out: IV Cl): 20.2 mL/min/kg
- Cmax ([2]; male, C57BL/6, mouse, mice plasma, PO, dose per compound in table (5.28-9.95 mg/kg)): 2340 ng/mL
- Liver AUCinf/Dose ([2]; mice liver, PO): 20884 ng·kg·h/g/mg
- Liver Cmax/Dose ([2]; mice liver, PO): 6624 kg·ng/mg/mL
- dose-normalized Cmax and dose-normalized AUCinf in liver, in words ([2]; mice liver, comparing with reference 1 and reference 2): far increased
- IV AUCinf/Dose [2, 4]: 830.9 ng·kg·h/mg/mL
- PO AUCinf/Dose ([2]; mice plasma, PO): 1049.3 ng·kg·h/mg/mL
- clearance, in words ([2]; mice plasma, comparing with reference 1 and reference 2): far slower clearance
- F ([2]; mice): 126%
- bioavailability in plasma, in words ([2]; mice, comparing with reference 1 and reference 2): increased bioavailability
- clearance [3]: 23.4 mL/min/kg
- Cmax [3]: 1180 ng/mL
- IV AUCinf/Dose [3]: 771.6 ng·kg·h/mg/mL
- PO AUCinf/Dose [3]: 389.2 ng·kg·h/mg/mL
- clearance, in words [3]: far slower clearance
- dose-normalized AUC (AUCinf/Dose), in words [3]: over two-folds higher
- F [3]: 50.3%
- bioavailability (F (%)), in words [3]: increased (or equal) bioavailability

Compound: COC(=O)C1=C(CN2CCN3C(=S)N(CC(C)(C)C(=O)O)CC3C2)NC(c2nccs2)=NC1c1ccc(F)cc1Cl (single isomer, unassigned) [Compound 4B, 3-(7-((6-(2-chloro-4-fluorophenyl)-5-(methoxycarbonyl)-2-(thiazol-2-yl)-3,6-dihydropyrimidin-4-yl)methyl)-3-thioxohexahydroimidazo[1,5-a]pyrazin-2(3H)-yl)-2,2-dimethylpropanoic acid]
- EC50 (HBV): 0.0019 µM
- CC50 (HepG2.2.15 cells): 23.1 µM
- half-life at 1 uM [1]: > 4.82 h
- CLint scaled at 1 uM [1]: < 6.1 mL/min/kg
- metabolic stability in human hepatocyte cells, in words (human hepatocytes): improved metabolic stability
- clearance [3]: 28.8 mL/min/kg
- Cmax [3]: 962 ng/mL
- IV AUCinf/Dose [3]: 594.3 ng·kg·h/mg/mL
- PO AUCinf/Dose [3]: 336.8 ng·kg·h/mg/mL
- clearance, in words [3]: far slower clearance
- dose-normalized AUC (AUCinf/Dose), in words [3]: over two-folds higher
- F [3]: 56.5%
- bioavailability (F (%)), in words [3]: increased (or equal) bioavailability

Compound: CCOC(=O)C1=C(CN2CCOCC2)NC(c2nccs2)=NC1c1ccc(F)cc1Br (centres unmarked) [Reference 1, GLS4, reference compound]
- T½ (human hepatocytes; human hepatocytes, 1.0 μM, 0-120 min): 0.255 h
- Clint (liver) (human hepatocytes; human hepatocytes, scale-up intrinsic clearance, scaling factor 2544.3): 115.3 mL/min/kg
- Liver AUCinf/Dose ([2]; mice liver, PO): 69.2 ng·kg·h/g/mg
- Liver Cmax/Dose ([2]; mice liver, PO): 5.1 kg·ng/mg/mL
- IV AUCinf/Dose [2, 4]: 232.5 ng·kg·h/mg/mL
- IV Cl [2, 4]: 73.9 mL/min/kg
- PO AUCinf/Dose ([2]; mice plasma, PO): 17.3 ng·kg·h/mg/mL
- PO Cmax ([2]; mice plasma, PO, dose per compound in table (5.28-9.95 mg/kg)): 14.5 ng/mL
- F ([2]; mice): 7.5%
